{"source": "paper PMC8896804", "about": "(Science Advances, 2022)", "key": {"[1]": {"test_system": "S. pusilla", "assay": "Survival after hyper-osmotic salinity exposure", "type": "in vivo, Stylochoplana pusilla", "details": "10^−6 M OVTA, n = 45, Fig. 3B"}, "[2]": {"test_system": "platytocin receptor (PTR)", "type": "cell-based", "details": "COS-7 cells transfected with ptr, cotreated with platytocin 90 min at 37°C; global Schild analysis, slope of 1; mean ± SEM, n = 4"}}}
{"substance": "[d(CH2)5^1, Tyr(Me)^2, Thr^4, Orn^8, Tyr^9-NH2]–vasotocin [OVTA]", "values": [{"measurement": "hyperosmolality (70 ppt) resistance", "setting": "[1]", "value": "Hyperosmolality (70 ppt) resistance is blocked by 10^−6 M OVTA"}, {"measurement": "pA2, block of platytocin-mediated IP1 accumulation", "setting": "[2]", "value": "6.99 ± 0.27"}]}
